# According to patent US5965088A, “Method for providing rapid disinfection of contact lenses” (priority 1997, dated 1999):
# Like-named read-outs stand apart in the source and are kept apart here.
# What was measured:
# [1] = test system: Staphylococcus aureus (ATCC 6538); test: Antimicrobial efficacy (stand-alone log reduction), S. aureus; assay type: cell-based; details: for log reduction at 4 ppm / log reduction at 1 ppm / log reduction at 2 ppm / log reduction at 3 ppm / log reduction at 5 ppm / log reduction at 4 µg/mL: Staphylococcus aureus; for log reduction at 4 µg/mL: 4.0 ppm alexidine in ReNu MPS
# Method: (§1) This Example illustrates the microbiocidal efficacy of solutions according to the present invention. The antimicrobial efficacy of each of various compositions for the chemical disinfection of contact lenses was evaluated. Microbial challenge inoculums were prepared using Pseudomonas aeruginosa (ATCC 9027), Staphylococcus aureus (ATCC 6538), Serratia marcescens (ATCC 13880), Candida albicans (ATCC 10231), and Fusarium solani (ATCC 36031). The test organisms were cultured on appropriate agar and the cultures were harvested using sterile DPBST (Dulbecco's Phosphate Buffered Saline plus 0.05% w/v polysorbate 80) or a suitable diluent and transferred to a suitable vessel. Spore suspensions were filtered through sterile glass wool to remove hyphal fragments. Serratia marcescens, as appropriate, was filtered (eg., through a 1.2 μ filter) to clarify the suspension. After harvesting, the suspension was centrifuged at no more than 5000× g for a maximum of 30 minutes at 20-25° C. The supernatant was poured off and resuspended in DPBST or other suitable diluent. The suspension was centrifuged a second time, and resuspended in DPBST or other suitable diluent. All challenge bacterial and fungal cell suspensions were adjusted with DPBST or other suitable diluent to 1×10^7 -10^8 cfu/mL. The appropriate cell concentration may be estimated by measuring the turbidity of the suspension, for example using a spectrophotometer at a preselected wavelength, for example 490 nm. One tube was prepared containing a minimum of 10 mL of test solution per challenge organism. Each tube of the solution to be tested was inoculated with a suspension of the test organism sufficient to provide a final count of 1.0×10^5 -10^6 cfu/mL, the volume of the inoculum not exceeding 1% of the sample volume. Dispersion of the inoculum was ensured by vortexing the sample for at least 15 seconds. The inoculated product was stored at 10-25° C. Aliquots in the amount of 1.0 mL were taken of the inoculated product for determination of viable counts after certain time periods of disinfection. The time points for the bacteria were 25, 50, 75, and 100% of the minimum disinfection time. Yeast and mold were tested at an additional timepoint of at least 400% of the minimum disinfection time. The suspension was mixed well by vortexing vigorously for at least 5 second. The 1.0 mL aliquots removed at the specified time intervals were subjected to a suitable series of decimal dilutions in validated neutralizing media. The suspensions were mixed vigorously and incubated for a suitable period of time to allow for neutralization of the microbial agent. The viable count of organisms was determined in appropriate dilutions by preparation of triplicate plates of trypticase soy (TSA) agar for bacteria and Sabouraud dextrose agar (SDA) for mold and yeast. The bacterial recovery plates were incubated at 30-35° C. for 2-4 days. The yeast was incubated at 20-30° C. for 2-4 days and mold recovery plates at 20-25° C. for 3-7 days. The average number of colony forming units was determined on countable plates. Countable plates refer to 30-300 cfu/plates for bacteria and yeast, and 8 to 80 cfu/plate for mold except when colonies are observed only for the 10^0 or 10^-1 dilution plates. The microbial reduction was then calculated at the specified time points. […] Following inoculation in a validated neutralizing broth and incubation for an appropriate period of time, the inoculum control must be between 1.0×10^5 -1.0×10^6 cfu/mL
# (§2) The solutions were evaluated based on the performance requirement referred to as the "Stand-Alone Procedure for Disinfecting Products" (hereafter the "stand-alone test") and is based on the Disinfection Efficacy Testing for contact lens care products under the Draft Premarket Notification (510(k)) Guidance Document For Contact Lens Care Products dated Apr. 1, 1996, prepared by the U.S. Food and Drug Administration, Division of Ophthalmic Devices. […]
# [2] = test system: Fusarium solani (ATCC 36031); test: Antimicrobial efficacy (stand-alone log reduction), F. solani; assay type: cell-based; details: for log reduction at 4 µg/mL: 4.0 ppm alexidine in ReNu MPS
# Method: as §1, §2
compound,measurement,setting,value
"CCCCC(CC)CNC(=N)NC(=N)NCCCCCCNC(=N)NC(=N)NCC(CC)CCCC.Cl.Cl (stereo not shown) [Alexidine.2HCl, 1,1 '-hexamethylenebis(5-(2-ethylhexyl)-biguanide) dihydrochloride]","stand-alone test, 15 minute time point","[1]; 4.0 ppm, Example 6, 15 min",the 15 minute time point failed
same,log reduction at 4 ppm,"[1]; ATCC6538, 2.5 min",2
same,log reduction at 4 ppm,"[1]; ATCC6538, 2.5 min, 4.0 ppm, aged 18 months, Exp. 1, 2.5 min, read-out: Log Reduction",2.2
same,log reduction at 4 ppm,"[1]; ATCC6538, 2.5 min, 4.0 ppm, aged 18 months, Exp. 2, 2.5 min, read-out: Log Reduction",1.6
same,log reduction at 1 ppm,"[1]; ATCC6538, 5 min, 1.0 ppm, read-out: Log Reduction at 5 Minutes",0.7
same,log reduction at 2 ppm,"[1]; ATCC6538, 5 min, 2.0 ppm, read-out: Log Reduction at 5 Minutes",1.6
same,log reduction at 3 ppm,"[1]; ATCC6538, 5 min, 3.0 ppm, read-out: Log Reduction at 5 Minutes",2.6
same,log reduction at 4 ppm,"[1]; ATCC6538, 5 min, 4.0 ppm, aged 18 months, Exp. 1, 5.0 min, read-out: Log Reduction",2.7
same,log reduction at 4 ppm,"[1]; ATCC6538, 5 min, 4.0 ppm, aged 18 months, Exp. 2, 5.0 min, read-out: Log Reduction",2
same,log reduction at 4 ppm,"[1]; ATCC6538, 5 min, 4.0 ppm, aged 18 months, Exp. 3, 5.0 min, read-out: Log Reduction",2.8
same,log reduction at 4 ppm,"[1]; ATCC6538, 5 min, 4.0 ppm, read-out: Log Reduction at 5 Minutes",4.8
same,log reduction at 5 ppm,"[1]; ATCC6538, 5 min, 5.0 ppm, read-out: Log Reduction at 5 Minutes",4.8
same,log reduction at 4 ppm,"[1]; ATCC6538, 0.125 h",2.3
same,log reduction at 4 ppm,"[1]; ATCC6538, 0.125 h, 4.0 ppm, aged 18 months, Exp. 1, 7.5 min, read-out: Log Reduction",3.1
same,log reduction at 4 ppm,"[1]; ATCC6538, 0.125 h, 4.0 ppm, aged 18 months, Exp. 3, 7.5 min, read-out: Log Reduction",3.4
same,log reduction at 1 ppm,"[1]; ATCC6538, 10 min, 1.0 ppm, read-out: Log Reduction at 10 Minutes",1
same,log reduction at 2 ppm,"[1]; ATCC6538, 10 min, 2.0 ppm, read-out: Log Reduction at 10 Minutes",2.6
same,log reduction at 3 ppm,"[1]; ATCC6538, 10 min, 3.0 ppm, read-out: Log Reduction at 10 Minutes",4
same,log reduction at 4 ppm,"[1]; ATCC6538, 10 min, 4.0 ppm, aged 18 months, Exp. 1, 10.0 min, read-out: Log Reduction",3.5
same,log reduction at 4 ppm,"[1]; ATCC6538, 10 min, 4.0 ppm, aged 18 months, Exp. 2, 10.0 min, read-out: Log Reduction",2.7
same,log reduction at 4 ppm,"[1]; ATCC6538, 10 min, 4.0 ppm, aged 18 months, Exp. 3, 10.0 min, read-out: Log Reduction",3.9
same,log reduction at 4 ppm,"[1]; ATCC6538, 10 min, 4.0 ppm, read-out: Log Reduction at 10 Minutes",4.8
same,log reduction at 5 ppm,"[1]; ATCC6538, 10 min, 5.0 ppm, read-out: Log Reduction at 10 Minutes",> 4.8
same,log reduction at 4 ppm,"[1]; ATCC6538, 0.25 h, 4.0 ppm, Ex. 6, aged 19 months at 25 °C, 15 min, read-out: Log Reduction",2.5
same,log reduction at 4 ppm,"[1]; ATCC6538, 0.25 h, 4.0 ppm, Ex. 7, different lot aged 18 months, 15 min, read-out: Log Reduction",3.7
same,log reduction at 4 ppm,"[1]; ATCC6538, 0.25 h, 4.0 ppm, Ex. 8, different batch aged 19 months at 25 °C, 15 min, read-out: Log Reduction",3.5
same,log reduction at 4 ppm,"[1]; ATCC6538, 0.5 h, 4.0 ppm, Ex. 6, aged 19 months at 25 °C, 30 min, read-out: Log Reduction",4.4
same,log reduction at 4 ppm,"[1]; ATCC6538, 0.5 h, 4.0 ppm, Ex. 7, different lot aged 18 months, 30 min, read-out: Log Reduction",4.7
same,log reduction at 4 ppm,"[1]; ATCC6538, 0.5 h, 4.0 ppm, Ex. 8, different batch aged 19 months at 25 °C, 30 min, read-out: Log Reduction",> 4.9
same,log reduction at 4 ppm,"[1]; ATCC6538, 0.75 h, 4.0 ppm, Ex. 6, aged 19 months at 25 °C, 45 min, read-out: Log Reduction",> 4.9
same,log reduction at 4 ppm,"[1]; ATCC6538, 0.75 h, 4.0 ppm, Ex. 7, different lot aged 18 months, 45 min, read-out: Log Reduction",> 4.8
same,log reduction at 4 ppm,"[1]; ATCC6538, 0.75 h, 4.0 ppm, Ex. 8, different batch aged 19 months at 25 °C, 45 min, read-out: Log Reduction",> 4.9
same,log reduction at 1 ppm,"[1]; ATCC6538, 1 h, 1 ppm, 1 hr, read-out: Log Reduction",1.6
same,log reduction at 2 ppm,"[1]; ATCC6538, 1 h, 2 ppm, 1 hr, read-out: Log Reduction",4.3
same,log reduction at 3 ppm,"[1]; ATCC6538, 1 h, 3 ppm, 1 hr, read-out: Log Reduction",> 4.8
same,log reduction at 4 µg/mL,"[1]; ATCC6538, 1 h, 1 hr",> 4.9
same,log reduction at 4 ppm,"[1]; ATCC6538, 1 h, 4 ppm, 1 hr, read-out: Log Reduction",> 4.8
same,log reduction at 4 ppm,"[1]; ATCC6538, 1 h, 4.0 ppm, Ex. 6, aged 19 months at 25 °C, 60 min, read-out: Log Reduction",> 4.9
same,log reduction at 4 ppm,"[1]; ATCC6538, 1 h, 4.0 ppm, Ex. 7, different lot aged 18 months, 60 min, read-out: Log Reduction",> 4.8
same,log reduction at 4 ppm,"[1]; ATCC6538, 1 h, 4.0 ppm, Ex. 8, different batch aged 19 months at 25 °C, 60 min, read-out: Log Reduction",> 4.9
same,log reduction at 5 ppm,"[1]; ATCC6538, 1 h, 5 ppm, 1 hr, read-out: Log Reduction",> 4.8
same,log reduction at 4 µg/mL,"[1]; ATCC6538, 2 h, 2 hr",> 4.9
same,log reduction at 4 µg/mL,"[1]; ATCC6538, 3 h, 3 hr",> 4.9
same,log reduction at 4 µg/mL,"[1]; ATCC6538, 4 h, 4 hr",> 4.9
same,log reduction at 4 ppm,"[2]; ATCC36031, 2.5 min, aged 18 months, Exp. 1, 2.5 min",2.5
same,log reduction at 4 ppm,"[2]; ATCC36031, 2.5 min, aged 18 months, Exp. 2, 2.5 min",2.5
same,log reduction at 4 ppm,"[2]; ATCC36031, 2.5 min, aged 18 months, Exp. 3, 2.5 min",2.2
same,log reduction at 4 ppm,"[2]; ATCC36031, 5 min, aged 18 months, Exp. 1, 5.0 min",4.3
same,log reduction at 4 ppm,"[2]; ATCC36031, 5 min, aged 18 months, Exp. 2, 5.0 min",4.1
same,log reduction at 4 ppm,"[2]; ATCC36031, 5 min, aged 18 months, Exp. 3, 5.0 min",2.1
same,log reduction at 4 ppm,"[2]; ATCC36031, 0.125 h, aged 18 months, Exp. 1, 7.5 min",4.6
same,log reduction at 4 ppm,"[2]; ATCC36031, 0.125 h, aged 18 months, Exp. 2, 7.5 min",4.4
same,log reduction at 4 ppm,"[2]; ATCC36031, 0.125 h, aged 18 months, Exp. 3, 7.5 min",2.4
same,log reduction at 4 ppm,"[2]; ATCC36031, 10 min, aged 18 months, Exp. 1, 10.0 min",> 4.6
same,log reduction at 4 ppm,"[2]; ATCC36031, 10 min, aged 18 months, Exp. 2, 10.0 min",4.5
same,log reduction at 4 ppm,"[2]; ATCC36031, 10 min, aged 18 months, Exp. 3, 10.0 min",2.5
same,log reduction at 4 ppm,"[2]; ATCC36031, 0.25 h, Ex. 6, aged 19 months at 25 °C, 15 min",3.4
same,log reduction at 4 ppm,"[2]; ATCC36031, 0.25 h, Ex. 7, different lot aged 18 months, 15 min",2.4
same,log reduction at 4 ppm,"[2]; ATCC36031, 0.25 h, Ex. 8, different batch aged 19 months at 25 °C, 15 min",3.6
same,log reduction at 4 ppm,"[2]; ATCC36031, 0.5 h, Ex. 6, aged 19 months at 25 °C, 30 min",4.3
same,log reduction at 4 ppm,"[2]; ATCC36031, 0.5 h, Ex. 7, different lot aged 18 months, 30 min",> 4.5
same,log reduction at 4 ppm,"[2]; ATCC36031, 0.5 h, Ex. 8, different batch aged 19 months at 25 °C, 30 min",> 4.6
same,log reduction at 4 ppm,"[2]; ATCC36031, 40 min, aged 18 months, Exp. 1, 40.0 min",> 4.6
same,log reduction at 4 ppm,"[2]; ATCC36031, 40 min, aged 18 months, Exp. 2, 40.0 min",> 4.5
same,log reduction at 4 ppm,"[2]; ATCC36031, 40 min, aged 18 months, Exp. 3, 40.0 min",> 4.6
same,log reduction at 4 ppm,"[2]; ATCC36031, 0.75 h, Ex. 6, aged 19 months at 25 °C, 45 min",4.4
same,log reduction at 4 ppm,"[2]; ATCC36031, 0.75 h, Ex. 7, different lot aged 18 months, 45 min",> 4.5
same,log reduction at 4 ppm,"[2]; ATCC36031, 0.75 h, Ex. 8, different batch aged 19 months at 25 °C, 45 min",> 4.6
same,log reduction at 4 µg/mL,"[2]; ATCC36031, 1 h, 1 hr",3.1
same,log reduction at 4 ppm,"[2]; ATCC36031, 1 h, Ex. 6, aged 19 months at 25 °C, 60 min",4.2
same,log reduction at 4 ppm,"[2]; ATCC36031, 1 h, Ex. 7, different lot aged 18 months, 60 min",> 4.5
same,log reduction at 4 ppm,"[2]; ATCC36031, 1 h, Ex. 8, different batch aged 19 months at 25 °C, 60 min",> 4.6
same,log reduction at 4 µg/mL,"[2]; ATCC36031, 2 h, 2 hr",4.1
same,log reduction at 4 µg/mL,"[2]; ATCC36031, 3 h, 3 hr",4.5
same,log reduction at 4 µg/mL,"[2]; ATCC36031, 4 h, 4 hr",4.6
same,log reduction at 4 ppm,"[2]; ATCC36031, 4 h, Ex. 6, aged 19 months at 25 °C, 4 h",> 4.4
same,log reduction at 4 ppm,"[2]; ATCC36031, 4 h, Ex. 7, different lot aged 18 months, 4 hrs",> 4.5
same,log reduction at 4 ppm,"[2]; ATCC36031, 4 h, Ex. 8, different batch aged 19 months at 25 °C, 4 hrs",> 4.6
same,log reduction at 4 µg/mL,"[2]; ATCC36031, 24 h, 24 hr",> 4.6
